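Grown in 96-well plates, cells were treated for 48 hours with each compound at five concentrations. Insufficient inhibition: endpoint recorded as highest concentration tested. TGI denotes the concentration required for complete inhibition of growth.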
Assays:
Experiment in all cases: growth of human tumour cells (NCI), 48 h
[1] = test system: CCRF-CEM leukemia
[2] = test system: HCT-15 colon
[3] = test system: NCI-H226 lung
[4] = test system: MCF7 breast
[5] = test system: NCI-H460 lung
[6] = test system: DU-145 prostate
[7] = test system: EKVX NSCLC
[8] = test system: HS 578T breast
[9] = test system: OVCAR-3 ovarian
[10] = test system: CAKI-1 renal
[11] = test system: MDA-MB-231 breast
[12] = test system: BT-549 breast
[13] = test system: NCI/ADR-RES ovarian
[14] = test system: COLO 205 colon
[15] = test system: PC-3 prostate
[16] = test system: IGROV1 ovarian
[17] = test system: TK-10 renal
[18] = test system: HOP-62 NSCLC
[19] = test system: SNB-75 CNS
[20] = test system: T-47D breast
[21] = test system: SR leukemia
[22] = test system: HCT-116 colon
[23] = test system: LOX IMVI melanoma
[24] = test system: HCC-2998 colon
[25] = test system: SN12C renal
[26] = test system: NCI-H23 lung
[27] = test system: SW-620 colon
[28] = test system: HL-60(TB) leukemia
[29] = test system: SF-539 CNS
[30] = test system: HOP-92 NSCLC
[31] = test system: K-562 leukemia
[32] = test system: MOLT-4 leukemia
[33] = test system: UO-31 renal
[34] = test system: A549 NSCLC
[35] = test system: UACC-62 melanoma
[36] = test system: U251 CNS
[37] = test system: HT29 colon
[38] = test system: OVCAR-8 ovarian
[39] = test system: SK-OV-3 ovarian
[40] = test system: NCI-H522 lung
[41] = test system: ACHN renal
[42] = test system: KM12 colon
[43] = test system: OVCAR-5 ovarian
[44] = test system: SF-268 CNS
[45] = test system: MDA-MB-435
[46] = test system: 786-0 renal
[47] = test system: SK-MEL-28 melanoma
[48] = test system: SF-295 CNS
[49] = test system: UACC-257 melanoma
[50] = test system: SK-MEL-5 melanoma
[51] = test system: RXF 393 renal
[52] = test system: OVCAR-4 ovarian
[53] = test system: M14 melanoma
[54] = test system: SNB-19 CNS
[55] = test system: MDA-N
[56] = test system: MALME-3M melanoma
[57] = test system: A498 renal
[58] = test system: SK-MEL-2 melanoma
[59] = test system: RPMI-8226 leukemia

CC1=CC(C/C(C)=C/COc2ccc3ccc(=O)oc3c2)OC1=O (stereo not drawn)
TGI [1]: > 100 µM
TGI [2]: > 100 µM
TGI [3]: > 100 µM
TGI [4]: > 100 µM
TGI [5]: > 100 µM
TGI [6]: > 100 µM
TGI [7]: > 100 µM
TGI [8]: > 100 µM
TGI [9]: > 100 µM
TGI [10]: > 100 µM
TGI [11]: > 100 µM
TGI [12]: > 100 µM
TGI [13]: > 100 µM
TGI [14]: > 100 µM
TGI [15]: > 100 µM
TGI [16]: > 100 µM
TGI [17]: > 100 µM
TGI [18]: > 100 µM
TGI [19]: > 100 µM
TGI [20]: > 100 µM
TGI [21]: > 100 µM
TGI [22]: > 100 µM
TGI [23]: > 100 µM
TGI [24]: > 100 µM
TGI [25]: > 100 µM
TGI [26]: > 100 µM
TGI [27]: > 100 µM
TGI [28]: > 100 µM
TGI [29]: > 100 µM
TGI [30]: > 100 µM
TGI [31]: > 100 µM
TGI [32]: > 100 µM
TGI [33]: > 100 µM
TGI [34]: > 100 µM
TGI [35]: > 100 µM
TGI [36]: > 100 µM
TGI [37]: > 100 µM
TGI [38]: > 100 µM
TGI [39]: > 100 µM
TGI [40]: > 100 µM
TGI [41]: > 100 µM
TGI [42]: > 100 µM
TGI [43]: > 100 µM
TGI [44]: > 100 µM
TGI [45]: > 100 µM
TGI [46]: > 100 µM
TGI [47]: > 100 µM
TGI [48]: > 100 µM
TGI [49]: > 100 µM
TGI [50]: > 100 µM
TGI [51]: > 100 µM
TGI [52]: > 100 µM
TGI [53]: > 100 µM
TGI [54]: > 100 µM
TGI [55]: > 100 µM

CC(C)(C)C(=O)CC1=Nc2ccccc2SC1(O)CC(=O)C(C)(C)C (stereo not drawn)
TGI [1]: 32.2 µM
TGI [2]: 52.8 µM
TGI [56]: > 100 µM
TGI [3]: 40.3 µM
TGI [4]: 61.2 µM
TGI [5]: 38.5 µM
TGI [6]: > 100 µM
TGI [7]: 59.6 µM
TGI [8]: 71.7 µM
TGI [9]: 75.3 µM
TGI [10]: 56.8 µM
TGI [11]: 36.2 µM
TGI [12]: 51.1 µM
TGI [13]: 66.8 µM
TGI [14]: 29.8 µM
TGI [15]: 73.6 µM
TGI [16]: 61.2 µM
TGI [17]: > 100 µM
TGI [18]: 76.2 µM
TGI [57]: > 100 µM
TGI [20]: 67.8 µM
TGI [21]: 33 µM
TGI [22]: 53.7 µM
TGI [23]: 49.4 µM
TGI [24]: 40.5 µM
TGI [25]: 73.2 µM
TGI [26]: 98.7 µM
TGI [27]: > 100 µM
TGI [28]: 80.2 µM
TGI [29]: 61.3 µM
TGI [58]: 32 µM
TGI [31]: 97.1 µM
TGI [32]: 24.3 µM
TGI [33]: 44.2 µM
TGI [34]: 51 µM
TGI [35]: 31.3 µM
TGI [36]: > 100 µM
TGI [37]: 31.5 µM
TGI [38]: 57 µM
TGI [59]: 25.7 µM
TGI [39]: 53.6 µM
TGI [40]: 34.4 µM
TGI [41]: 70.2 µM
TGI [42]: > 100 µM
TGI [43]: 69 µM
TGI [44]: 81.1 µM
TGI [45]: 64.5 µM
TGI [46]: 68.3 µM
TGI [47]: 66 µM
TGI [48]: 68.6 µM
TGI [49]: > 100 µM
TGI [50]: 62.7 µM
TGI [51]: 65.8 µM
TGI [53]: 81.9 µM
TGI [54]: > 100 µM
TGI [55]: > 100 µM

O=C1c2ccccc2C2(c3ccc(Cl)cc3)N[C@H]3CCCC[C@@H]3N12 (stereo partly drawn)
TGI [1]: > 100 µM
TGI [2]: > 100 µM
TGI [3]: > 100 µM
TGI [6]: > 100 µM
TGI [7]: > 100 µM
TGI [8]: > 100 µM
TGI [9]: > 100 µM
TGI [10]: > 100 µM
TGI [11]: > 100 µM
TGI [12]: > 100 µM
TGI [13]: > 100 µM
TGI [14]: > 100 µM
TGI [15]: > 100 µM
TGI [16]: > 100 µM
TGI [17]: > 100 µM
TGI [18]: > 100 µM
TGI [19]: > 100 µM
TGI [57]: > 100 µM
TGI [20]: > 100 µM
TGI [21]: > 100 µM
TGI [22]: > 100 µM
TGI [23]: > 100 µM
TGI [25]: > 100 µM
TGI [26]: > 100 µM
TGI [27]: > 100 µM
TGI [28]: > 100 µM
TGI [30]: > 100 µM
TGI [31]: > 100 µM
TGI [32]: > 100 µM
TGI [33]: > 100 µM
TGI [34]: > 100 µM
TGI [35]: > 100 µM
TGI [36]: > 100 µM
TGI [37]: > 100 µM
TGI [38]: > 100 µM
TGI [59]: > 100 µM
TGI [39]: > 100 µM
TGI [41]: > 100 µM
TGI [42]: > 100 µM
TGI [44]: > 100 µM
TGI [45]: > 100 µM
TGI [46]: > 100 µM
TGI [47]: > 100 µM
TGI [48]: > 100 µM
TGI [49]: > 100 µM
TGI [50]: > 100 µM
TGI [51]: > 100 µM
TGI [52]: > 100 µM
TGI [54]: > 100 µM
TGI [55]: > 100 µM

O=C1/C(=C/c2ccc(Cl)cc2)CSc2ccccc21
TGI [1]: 9.26 µM
TGI [2]: > 100 µM
TGI [56]: 74.4 µM
TGI [3]: 45.2 µM
TGI [4]: 9.35 µM
TGI [5]: > 100 µM
TGI [6]: > 100 µM
TGI [8]: 75.5 µM
TGI [9]: 49.1 µM
TGI [10]: 46.7 µM
TGI [11]: 55.9 µM
TGI [12]: 78.6 µM
TGI [13]: 34.5 µM
TGI [14]: 64.3 µM
TGI [15]: 44.5 µM
TGI [16]: 66.4 µM
TGI [17]: > 100 µM
TGI [18]: 63.9 µM
TGI [19]: 72.7 µM
TGI [57]: > 100 µM
TGI [20]: 58.3 µM
TGI [21]: > 100 µM
TGI [23]: 6.21 µM
TGI [25]: 43.4 µM
TGI [26]: 45.1 µM
TGI [27]: > 100 µM
TGI [28]: 64.6 µM
TGI [29]: 35.7 µM
TGI [30]: 90.3 µM
TGI [58]: 41.8 µM
TGI [31]: 92.1 µM
TGI [32]: > 100 µM
TGI [33]: 36.1 µM
TGI [34]: > 100 µM
TGI [35]: 14.6 µM
TGI [36]: 24.6 µM
TGI [37]: 49.6 µM
TGI [38]: > 100 µM
TGI [59]: 5.29 µM
TGI [39]: > 100 µM
TGI [42]: > 100 µM
TGI [44]: 73 µM
TGI [45]: 20.7 µM
TGI [46]: 39.3 µM
TGI [47]: 44.1 µM
TGI [49]: 37.4 µM
TGI [50]: 46 µM
TGI [51]: 36.3 µM
TGI [52]: 71.4 µM
TGI [53]: > 100 µM
TGI [54]: 39.4 µM
TGI [55]: 61.7 µM

Reference: PubChem BioAssay (NCI)
